“And” between values parts separate entries of the source, which are not always exact repeats. Identical values can stand only once. Like-named read-outs stand apart in the source and are kept apart here.
Legend:
NRAS G12C = NRAS G12C (Homo sapiens, UniProt P01111+P62937, G12C); assay: Disruption of BRAF RBD interaction with Ras (FRET / MOA assay, with Cyclophilin A); type: biochemical
KRAS G12D = KRAS G12D (Homo sapiens, UniProt P01116+P62937, G12D); assay: as above; type: biochemical; settings: read-out: KRAS G12D FRET data, IC50
How it was run: (§1)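 IC50 values reflect loss of K-Ras binding to BRAF RBD, read as a lowered TR-FRET ratio compared with DMSO, driven by compound-mediated K-Ras:Cyclophilin A complex formation. Compound top dose 30 μM final, 3-fold steps, 3 h incubation at 25 °C before a 1.5 h antibody step.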

KRAS G12V = KRAS G12V (Homo sapiens, UniProt P01116+P62937, G12V); assay: as above; type: biochemical
How it was run: as §1

KRAS G12C = KRAS G12C (Homo sapiens, UniProt P01116+P62937, G12C); assay: as above; type: biochemical
How it was run: as §1

KRAS G13D = KRAS G13D (Homo sapiens, UniProt P01116+P62937, G13D); assay: as above; type: biochemical
How it was run: as §1

KRAS G13C = KRAS G13C (Homo sapiens, UniProt P01116+P62937, G13C); assay: as above; type: biochemical; settings: KRAS G13C; read-out: KRAS G13C FRET data IC50
How it was run: as §1

KRAS WT = KRAS WT (Homo sapiens, UniProt P01116+P62937); assay: as above; type: biochemical
How it was run: as §1

KRAS G12S = KRAS G12S (Homo sapiens, UniProt P01116+P62937, G12S); assay: as above; type: biochemical
How it was run: as §1

[1] = system: K-Ras G12C (NCI-H358 cells); assay: Potency assay: pERK (AlphaLISA SureFire or In-Cell Western); type: cell-based; settings: Homo sapiens, NCI-H358; H358 KRAS G12C; read-out: pERK EC50
How it was run: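 NCI-H358 cells plated overnight, then treated 4 h at 37 °C with 10-point 3-fold DMSO dilutions (10 mM top stock), in duplicate. pERK1/2 read by AlphaLISA SureFire Ultra lysate assay or by In-Cell Western with DRAQ5 DNA stain. IC50 from 4-parameter sigmoidal fit of signal vs log concentration.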

[2] = NRAS G12C, read-out: NRAS G12C FRET data IC50
[3] = KRAS G12V, read-out: KRAS G12V FRET data IC50
[4] = KRAS G12C, read-out: KRAS G12C FRET data IC50
[5] = KRAS G13D, read-out: KRAS G13D FRET data IC50
[6] = KRAS WT, read-out: KRAS WT FRET data IC50
[7] = read-out: KRAS G12S FRET data, IC50

KRAS WT, sequence (P01116 1-169 isoform P01116-2 limits assumed): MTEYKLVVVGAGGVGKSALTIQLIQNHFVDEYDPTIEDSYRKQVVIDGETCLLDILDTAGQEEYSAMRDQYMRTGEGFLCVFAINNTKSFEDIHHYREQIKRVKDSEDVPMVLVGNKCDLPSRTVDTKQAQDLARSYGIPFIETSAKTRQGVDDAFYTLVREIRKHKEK
KRAS WT, sequence (P62937 whole entry): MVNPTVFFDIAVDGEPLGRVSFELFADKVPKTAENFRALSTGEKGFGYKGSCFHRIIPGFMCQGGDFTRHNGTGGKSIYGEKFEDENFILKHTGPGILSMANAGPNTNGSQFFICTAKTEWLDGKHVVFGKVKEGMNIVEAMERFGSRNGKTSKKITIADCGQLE
KRAS G12V, sequence (P01116 1-169 isoform P01116-2 G12V limits assumed): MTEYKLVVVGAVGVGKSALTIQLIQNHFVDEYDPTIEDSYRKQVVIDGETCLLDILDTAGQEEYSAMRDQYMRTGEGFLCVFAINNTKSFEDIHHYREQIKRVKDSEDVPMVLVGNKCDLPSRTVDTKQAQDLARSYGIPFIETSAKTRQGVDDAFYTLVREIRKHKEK
KRAS G12V, sequence (P62937 whole entry): as the sequence (P62937 whole entry) above
KRAS G12S, sequence (P01116 1-169 isoform P01116-2 G12S limits assumed): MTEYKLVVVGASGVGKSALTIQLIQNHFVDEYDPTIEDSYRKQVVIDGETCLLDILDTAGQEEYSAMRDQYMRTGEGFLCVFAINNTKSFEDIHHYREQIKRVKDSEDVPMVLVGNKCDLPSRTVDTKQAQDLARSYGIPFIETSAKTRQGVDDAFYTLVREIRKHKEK
KRAS G12S, sequence (P62937 whole entry): as the sequence (P62937 whole entry) above
NRAS G12C, sequence (P01111 whole entry G12C): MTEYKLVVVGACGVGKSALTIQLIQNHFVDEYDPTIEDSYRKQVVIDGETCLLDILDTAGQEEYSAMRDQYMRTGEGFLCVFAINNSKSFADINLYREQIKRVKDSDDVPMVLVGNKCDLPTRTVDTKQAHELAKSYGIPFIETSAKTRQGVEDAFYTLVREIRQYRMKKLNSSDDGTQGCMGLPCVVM
NRAS G12C, sequence (P62937 whole entry): as the sequence (P62937 whole entry) above
KRAS G13C, sequence (P01116 1-169 isoform P01116-2 G13C): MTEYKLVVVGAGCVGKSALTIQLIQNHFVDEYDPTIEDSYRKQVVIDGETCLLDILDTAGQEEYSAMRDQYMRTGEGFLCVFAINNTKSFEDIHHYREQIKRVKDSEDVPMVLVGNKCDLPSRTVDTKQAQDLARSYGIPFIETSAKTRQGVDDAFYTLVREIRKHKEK
KRAS G13C, sequence (P62937 whole entry): as the sequence (P62937 whole entry) above
KRAS G12D, sequence (P01116 1-169 isoform P01116-2 G12D limits assumed): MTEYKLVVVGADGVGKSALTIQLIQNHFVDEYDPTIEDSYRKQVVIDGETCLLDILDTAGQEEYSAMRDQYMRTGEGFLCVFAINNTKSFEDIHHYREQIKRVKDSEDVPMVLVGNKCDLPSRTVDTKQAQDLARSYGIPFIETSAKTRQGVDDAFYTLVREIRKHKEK
KRAS G12D, sequence (P62937 whole entry): as the sequence (P62937 whole entry) above
KRAS G12C, sequence (P01116 1-169 isoform P01116-2 G12C): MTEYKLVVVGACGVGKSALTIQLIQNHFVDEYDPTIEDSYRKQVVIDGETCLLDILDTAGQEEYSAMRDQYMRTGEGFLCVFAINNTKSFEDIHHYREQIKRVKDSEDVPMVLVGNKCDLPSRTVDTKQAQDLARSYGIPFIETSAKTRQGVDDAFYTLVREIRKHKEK
KRAS G12C, sequence (P62937 whole entry): as the sequence (P62937 whole entry) above
KRAS G13D, sequence (P01116 1-169 isoform P01116-2 G13D limits assumed): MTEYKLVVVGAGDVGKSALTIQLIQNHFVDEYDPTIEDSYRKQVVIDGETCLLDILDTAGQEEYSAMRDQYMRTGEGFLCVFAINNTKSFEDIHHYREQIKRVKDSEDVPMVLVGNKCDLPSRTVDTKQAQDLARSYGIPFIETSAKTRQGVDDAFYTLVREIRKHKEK
KRAS G13D, sequence (P62937 whole entry): as the sequence (P62937 whole entry) above

IC50 (NRAS G12C; [2]) | IC50 (KRAS G12D) | IC50 (KRAS G12V; [3]) | IC50 (KRAS G12C; [4]) | IC50 (KRAS G13D; [5]) [nM] | IC50 (KRAS G13C) | IC50 (KRAS WT; [6]) [nM] | IC50 (KRAS G12S; [7]) | EC50 [1] [nM] | SMILES | IC50 (NRAS G12C; NRAS G12C FRET data IC50, NRAS G12C) | IC50 (KRAS G12V; KRAS G12V FRET data IC50, KRAS G12V) [nM] | IC50 (KRAS G12C; KRAS G12C FRET data IC50, KRAS G12C) | IC50 (KRAS G13D; KRAS G13D FRET data IC50, KRAS G13D) | IC50 (KRAS WT; KRAS WT FRET data IC50, KRAS WT) [nM] | IC50 (KRAS G12S; KRAS G12S FRET data, IC50) [nM]
1000 to 10000 nM | > 10000 nM | 1000 to 10000 nM | 100 to 1000 nM | > 10000 | 1000 to 10000 nM | 1000 to 10000 | 1000 to 10000 nM | < 5000 | CC#CC(=O)N1CC[C@H](C(=O)N(C)[C@H](C(=O)N[C@H]2Cc3nc(cs3)-c3ccc4c(c3)c(c(-c3cccnc3[C@H](C)OC)n4CC)CC(C)(C)COC(=O)[C@@H]3CCCN(N3)C2=O)C(C)C)C1 [Example A168] | – | – | – | – | – | –
1000 to 10000 nM | > 10000 nM | > 10000 nM | 1000 to 10000 nM | > 10000 | 1000 to 10000 nM | > 10000 | > 10000 nM | < 5000 | C=CS(=O)(=O)N1CC[C@H](C(=O)N(C)[C@H](C(=O)N[C@H]2Cc3nc(cs3)-c3ccc4c(c3)c(c(-c3cncnc3)n4CC)CC(C)(C)COC(=O)[C@@H]3CCCN(N3)C2=O)C(C)C)C1 [Example A170] | – | – | – | – | – | –
10 to 100 nM | – | – | 10 to 100 nM | 100 to 1000 | – | – | – | < 5000 | C=CC(=O)N(C)C1CCN(C(=O)N(C)[C@H](C(=O)N[C@H]2Cc3nc(cs3)-c3ccc4c(c3)c(c(-c3cccnc3[C@H](C)OC)n4CC)CC(C)(C)COC(=O)[C@@H]3CCCN(N3)C2=O)C(C)C)C1 (some centres unmarked) [Example A384] | – | – | – | – | – | –

Further lines, the compound ahead of its results:

SMILES | IC50 (NRAS G12C; [2]) | IC50 (KRAS G12D) | IC50 (KRAS G12V; [3]) | IC50 (KRAS G12C; [4]) | IC50 (KRAS G13D; [5]) [nM] | IC50 (KRAS G13C) | IC50 (KRAS WT; [6]) [nM] | IC50 (KRAS G12S; [7]) | EC50 [1] [nM] | IC50 (NRAS G12C; NRAS G12C FRET data IC50, NRAS G12C) | IC50 (KRAS G12V; KRAS G12V FRET data IC50, KRAS G12V) [nM] | IC50 (KRAS G12C; KRAS G12C FRET data IC50, KRAS G12C) | IC50 (KRAS G13D; KRAS G13D FRET data IC50, KRAS G13D) | IC50 (KRAS WT; KRAS WT FRET data IC50, KRAS WT) [nM] | IC50 (KRAS G12S; KRAS G12S FRET data, IC50) [nM]
C=CC(=O)N1CC[C@@]2(CCN2C(=O)N(C)[C@H](C(=O)N[C@H]2Cc3nc(cs3)-c3ccc4c(c3)c(c(-c3cccnc3[C@H](C)OC)n4CC)CC(C)(C)COC(=O)C3CCCN(N3)C2=O)N(C)C)C1 (single isomer, unassigned) [Example A661] | 10 to 100 nM | 1000 to 10000 nM | 1000 to 10000 nM | 10 to 100 nM | 100 to 1000 | 100 to 1000 nM | 100 to 1000 | 100 to 1000 nM | < 5000 | – | – | – | – | – | –
C=CC(=O)N1CC[C@H](C(=O)N(C)[C@H](C(=O)N[C@H]2Cc3cc(O)cc(c3)-c3ccc4c(c3)c(c(-c3cccnc3)n4C3CC3)CC(C)(C)COC(=O)[C@@H]3CCCN(N3)C2=O)C(C)C)C1 [Example A160] | 1000 to 10000 nM | > 10000 nM | > 10000 nM | 100 to 1000 nM | > 10000 | > 10000 nM | > 10000 | > 10000 nM | < 5000 | – | – | – | – | – | –
C=CC(=O)N1CC[C@H](C(=O)N(C)[C@H](C(=O)N[C@H]2Cc3cc(O)cc(c3)-c3ccc4c(c3)c(c(-c3cc(C)cnc3[C@H](C)OC)n4CC)CC(C)(C)COC(=O)[C@@H]3CCCN(N3)C2=O)C(C)C)C1 [Example A167] | – | > 10000 nM and 100 to 1000 nM | 1000 to 10000 nM | – | – | 1000 to 10000 nM and 10 to 100 nM | 1000 to 10000 | 1000 to 10000 nM | < 5000 | 100 to 1000 nM and < 10 nM | 10 to 100 | 100 to 1000 nM and < 10 nM | 100 to 1000 nM and > 10000 nM | 10 to 100 | 10 to 100
C=CC(=O)N1CC[C@H](C(=O)N(C)[C@H](C(=O)N[C@H]2Cc3cc(O)cc(c3)-c3cnc4c(c3)c(c(-c3ccccc3CCOC)n4CC)CC(C)(C)COC(=O)[C@@H]3CCCN(N3)C2=O)C(C)C)C1 [Example A210] | 100 nM to 1 µM and 1 µM to 10 µM and > 10 µM (2×) | > 10000 nM | 1 µM to 10 µM and > 10 µM (3×) | 100 nM to 1 µM and 1 µM to 10 µM and > 10 µM (2×) | > 10000 | > 10000 nM | > 10000 | 1 µM to 10 µM and > 10 µM (3×) | < 5000 | – | – | – | – | – | –
CCn1c(-c2cccnc2[C@H](C)OC)c2c3cc(ccc31)N1CCO[C@@H](C[C@H](NC(=O)[C@H](C(C)C)N(C)C(=O)[C@@]3(F)CCN(C(=O)C#CC(C)(C)N4CCC4)C3)C(=O)N3CCC[C@H](N3)C(=O)OCC(C)(C)C2)C1 [Example A726] | 10 to 100 nM | > 10000 nM | 1000 to 10000 nM | – | – | 100 to 1000 nM | 1000 to 10000 | 1000 to 10000 nM | < 5000 | – | – | – | – | – | –

— patent US20230233569A1 (Revolution Medicines, Inc., priority 2020, published 2023)
